≈ marks a conversion by molar mass, not a printed value. Calls of active or inactive are those of the source. The rule behind the calls is not given here.
Columns and labels:
[1] = test system: Mycobacterium tuberculosis; assay: Antimycobacterial activity against Mycobacterium tuberculosis H37Rv infected in Balb/c mouse assessed as reduction in spleen bacterial load at 50 mg/kg, po dosed once daily 5 days per week for 6 weeks; assay type: functional
[2] = test system: Mycobacterium tuberculosis; assay: Antimycobacterial activity against Mycobacterium tuberculosis H37Rv infected in Balb/c mouse assessed as reduction in lung bacterial load at 25 mg/kg, po dosed once daily 5 days per week for 3 to 10 weeks; assay type: functional, organism-based
[3] = test system: Mycobacterium tuberculosis; assay: Antimycobacterial activity against Mycobacterium tuberculosis H37Rv infected in Balb/c mouse assessed as reduction in spleen bacterial load at 100 mg/kg, po dosed once daily 5 days per week for 3 weeks; assay type: functional
[4] = test system: Mycobacterium tuberculosis; assay: Antimycobacterial activity against Mycobacterium tuberculosis H37Rv infected in Balb/c mouse assessed as reduction in spleen bacterial load at 50 mg/kg, po dosed once daily 5 days per week for 10 weeks; assay type: functional
[5] = test system: Mycobacterium tuberculosis; assay: Antimycobacterial activity against Mycobacterium tuberculosis H37Rv infected in Balb/c mouse assessed as reduction in spleen bacterial load at 100 mg/kg, po dosed once daily 5 days per week for 10 weeks; assay type: functional
[6] = test system: Mycobacterium tuberculosis; assay: Antimycobacterial activity against Mycobacterium tuberculosis H37Rv infected in Balb/c mouse assessed as reduction in spleen bacterial load at 25 mg/kg, po dosed once daily 5 days per week for 3 weeks; assay type: functional
[7] = test system: Mycobacterium tuberculosis; assay: Antimycobacterial activity against Mycobacterium tuberculosis H37Rv infected in Balb/c mouse assessed as reduction in lung bacterial load at 100 mg/kg, po dosed once daily 5 days per week for 3 to 10 weeks; assay type: functional, organism-based
[8] = test system: Mycobacterium tuberculosis; assay: Antimycobacterial activity against Mycobacterium tuberculosis H37Rv infected in Balb/c mouse assessed as reduction in spleen bacterial load at 25 mg/kg, po dosed once daily 5 days per week for 10 weeks; assay type: functional
[9] = test system: THP-1; assay: Cytotoxic activity against human THP1 cells; assay type: cell-based
[10] = test system: Mycobacterium tuberculosis; assay: Antimycobacterial activity against Mycobacterium tuberculosis H37Rv ATCC 27294 assessed as inhibition of bacterial growth incubated for 14 days by inverted plate reader based macroscopy; assay type: functional; conditions: H37Rv ATCC 27294, 336 h
[11] = test system: Mycobacterium tuberculosis; assay: Antimycobacterial activity against Mycobacterium tuberculosis H37Rv infected in Balb/c mouse assessed as reduction in lung bacterial load at 50 mg/kg, po dosed once daily 5 days per week for 3 to 10 weeks; assay type: functional, organism-based
[12] = test system: Mycobacterium tuberculosis; assay: Antimycobacterial activity against Mycobacterium tuberculosis H37Rv infected in Balb/c mouse assessed as reduction in spleen bacterial load at 50 mg/kg, po dosed once daily 5 days per week for 3 weeks; assay type: functional
[13] = test system: Mycobacterium tuberculosis; assay: Antimycobacterial activity against Mycobacterium tuberculosis H37Rv infected in Balb/c mouse assessed as reduction in spleen bacterial load at 10 mg/kg, po dosed once daily 5 days per week for 6 weeks; assay type: functional
[14] = test system: Mycobacterium tuberculosis; assay: Antimycobacterial activity against Mycobacterium tuberculosis H37Rv infected in Balb/c mouse assessed as reduction in spleen bacterial load at 10 mg/kg, po dosed once daily 5 days per week for 10 weeks; assay type: functional, organism-based
[15] = test system: Mycobacterium tuberculosis; assay: Antimycobacterial activity against Mycobacterium tuberculosis H37Rv infected in Balb/c mouse assessed as reduction in lung bacterial load at 10 mg/kg, po dosed once daily 5 days per week for 3 weeks; assay type: functional
[16] = test system: Mycobacterium tuberculosis; assay: Antimycobacterial activity against Mycobacterium tuberculosis H37Rv infected in Balb/c mouse assessed as reduction in lung bacterial load at 10 mg/kg, po dosed once daily 5 days per week for 10; assay type: functional, organism-based
[17] = test system: Mycobacterium tuberculosis; assay: Antimycobacterial activity against Mycobacterium tuberculosis H37Rv infected in Balb/c mouse assessed as reduction in spleen bacterial load at 10 mg/kg, po dosed once daily 5 days per week for 3 weeks; assay type: functional
[18] = test system: Mycobacterium tuberculosis; assay: Antimycobacterial activity against Mycobacterium tuberculosis H37Rv infected in Balb/c mouse assessed as reduction in lung bacterial load at 10 mg/kg, po dosed once daily 5 days per week for 6; assay type: functional
[19] = test system: Mycobacterium tuberculosis; assay: Antimycobacterial activity against Mycobacterium tuberculosis H37Rv infected in Balb/c mouse assessed as reduction in lung bacterial load at 25 mg/kg, po dosed once daily 5 days per week for 10 weeks; assay type: functional
[20] = test system: Mycobacterium tuberculosis; assay: Antimycobacterial activity against Mycobacterium tuberculosis H37Rv infected in Balb/c mouse assessed as reduction in lung bacterial load at 25 mg/kg, po dosed once daily 5 days per week for 6 weeks; assay type: functional
[21] = test system: Mycobacterium tuberculosis; assay: Antimycobacterial activity against Mycobacterium tuberculosis H37Rv infected in Balb/c mouse assessed as reduction in lung bacterial load at 25 mg/kg, po dosed once daily 5 days per week for 3 weeks; assay type: functional
[22] = test system: Mycobacterium tuberculosis; assay: Antimycobacterial activity against Mycobacterium tuberculosis H37Rv infected in Balb/c mouse assessed as reduction in spleen bacterial load at 25 mg/kg, po dosed once daily 5 days per week for 6 weeks; assay type: functional, organism-based

Compound | Activity [9] [µM] | MIC99 [10] [µM] | further results
Cc1ccc(NC(=O)COc2ccc(/C=N/NC(=O)c3ccncc3)cc2)cc1 | > 50 | 0.39 (≈ 0.151 µg/mL) | Activity [1]: 2.28 log10CFU; Activity [2]: inactive; Activity [3]: 1.77 log10CFU; Activity [4]: 2.14 log10CFU; Activity [5]: 3.11 log10CFU; Activity [6]: 1.19 log10CFU; Activity [7]: inactive; Activity [8]: 1.23 log10CFU; Activity [11]: inactive; Activity [12]: 1.4 log10CFU
O=C(COc1ccc(/C=N/NC(=O)c2ccncc2)cc1)Nc1ccc(Cl)cc1 | > 50 | 0.39 (≈ 0.159 µg/mL) | –
O=C(COc1ccc(/C=N/NC(=O)c2ccncc2)cc1)NCCc1ccccc1 | > 50 | 0.78 (≈ 0.314 µg/mL) | –
O=C(COc1ccc(/C=N/NC(=O)c2ccncc2)cc1)Nc1ccccc1Br | > 50 | 0.78 (≈ 0.354 µg/mL) | –
O=C(COc1ccc(/C=N/NC(=O)c2ccncc2)cc1)Nc1ccc([N+](=O)[O-])cc1 | > 50 | 1.56 (≈ 0.654 µg/mL) | –
CCc1ccc(NC(=O)COc2ccc(/C=N/NC(=O)c3ccncc3)cc2)cc1 | > 50 | 0.39 (≈ 0.157 µg/mL) | –
O=C(COc1ccc(/C=N/NC(=O)c2ccncc2)cc1)Nc1ccccc1F | > 50 | 0.78 (≈ 0.306 µg/mL) | –
CO[C@H]1/C=C/O[C@@]2(C)Oc3c(C)c(O)c4c(O)c(c(/C=N/N5CCN(C)CC5)c(O)c4c3C2=O)NC(=O)/C(C)=C\C=C\[C@H](C)[C@H](O)[C@@H](C)[C@@H](O)[C@@H](C)[C@H](OC(C)=O)[C@@H]1C [RIFAMPIN] | – | – | Activity [13]: 3.31 log10CFU; Activity [14]: Active; Activity [15]: 1.93 log10CFU; Activity [16]: Active; Activity [17]: 1.76 log10CFU; Activity [18]: 2.8 log10CFU
NNC(=O)c1ccncc1 [ISONIAZID] | – | 0.39 (≈ 0.0535 µg/mL) | Activity [19]: 3.38 log10CFU; Activity [6]: 2.66 log10CFU; Activity [20]: 2.59 log10CFU; Activity [21]: 1.22 log10CFU; Activity [8]: Active; Activity [22]: Active
O=C(COc1ccc(/C=N/NC(=O)c2ccncc2)cc1)Nc1cccc2ccccc12 | > 50 | 1.56 (≈ 0.662 µg/mL) | –
O=C(COc1ccc(/C=N/NC(=O)c2ccncc2)cc1)Nc1ccccc1 | > 50 | 0.78 (≈ 0.292 µg/mL) | –
O=C(COc1ccc(/C=N/NC(=O)c2ccncc2)cc1)Nc1ccc(F)cc1 | > 50 | 0.78 (≈ 0.306 µg/mL) | –
O=C(COc1ccc(/C=N/NC(=O)c2ccncc2)cc1)Nc1ccc(Br)cc1 | > 50 | 0.78 (≈ 0.354 µg/mL) | –
COc1ccc(NC(=O)COc2ccc(/C=N/NC(=O)c3ccncc3)cc2)cc1 | > 50 | 0.39 (≈ 0.158 µg/mL) | –
COc1ccc(CNC(=O)COc2ccc(/C=N/NC(=O)c3ccncc3)cc2)cc1 | > 50 | 0.39 (≈ 0.163 µg/mL) | –
O=C(COc1ccc(/C=N/NC(=O)c2ccncc2)cc1)Nc1cccc(Cl)c1 | > 50 | 0.78 (≈ 0.319 µg/mL) | –
O=C(COc1ccc(/C=N/NC(=O)c2ccncc2)cc1)Nc1ccccc1Cl | > 50 | 0.78 (≈ 0.319 µg/mL) | –
O=C(COc1ccc(/C=N/NC(=O)c2ccncc2)cc1)Nc1ccccn1 | > 50 | 0.78 (≈ 0.293 µg/mL) | –
Cc1ccc(CNC(=O)COc2ccc(/C=N/NC(=O)c3ccncc3)cc2)cc1 | > 50 | 0.39 (≈ 0.157 µg/mL) | –
O=C(COc1ccc(/C=N/NC(=O)c2ccncc2)cc1)Nc1cccc(Br)c1 | > 50 | 0.78 (≈ 0.354 µg/mL) | –
O=C(COc1ccc(/C=N/NC(=O)c2ccncc2)cc1)Nc1cccc(F)c1 | > 50 | 0.78 (≈ 0.306 µg/mL) | –
CC(C)c1ccc(NC(=O)COc2ccc(/C=N/NC(=O)c3ccncc3)cc2)cc1 | > 50 | 0.39 (≈ 0.162 µg/mL) | –
O=C(COc1ccc(/C=N/NC(=O)c2ccncc2)cc1)NCc1ccccc1 | > 50 | 0.78 (≈ 0.303 µg/mL) | –
O=C(COc1ccc(/C=N/NC(=O)c2ccncc2)cc1)Nc1cccnc1 | > 50 | 0.39 (≈ 0.146 µg/mL) | –
